Tests used:
Format in all cases: biochemical
[1] = biological target: T1, Zap-70 (Homo sapiens, UniProt P43403); experiment: Kinase inhibition assay (33P transfer), Zap-70; settings: read-out: Zap-1
T1 construct: Kinases are expressed as either kinase domains or full length constructs; made in house
T1 sequence (P43403 1-619): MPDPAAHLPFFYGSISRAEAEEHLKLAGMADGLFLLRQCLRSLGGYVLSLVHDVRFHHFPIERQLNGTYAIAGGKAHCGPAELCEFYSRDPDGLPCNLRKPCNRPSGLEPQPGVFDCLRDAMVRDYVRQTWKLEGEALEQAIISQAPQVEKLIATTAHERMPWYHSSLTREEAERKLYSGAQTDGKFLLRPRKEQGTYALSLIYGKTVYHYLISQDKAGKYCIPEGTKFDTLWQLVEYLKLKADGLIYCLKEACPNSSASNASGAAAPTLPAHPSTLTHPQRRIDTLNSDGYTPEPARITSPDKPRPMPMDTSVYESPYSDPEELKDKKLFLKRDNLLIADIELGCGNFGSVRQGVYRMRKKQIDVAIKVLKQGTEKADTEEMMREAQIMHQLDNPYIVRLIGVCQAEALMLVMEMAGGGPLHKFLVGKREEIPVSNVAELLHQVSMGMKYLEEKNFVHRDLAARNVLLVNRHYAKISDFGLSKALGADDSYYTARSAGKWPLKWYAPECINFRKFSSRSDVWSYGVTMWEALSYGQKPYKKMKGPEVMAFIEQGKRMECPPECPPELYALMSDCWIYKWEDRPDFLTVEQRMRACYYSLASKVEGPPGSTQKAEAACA
Procedure, shortened: (§1)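 GST/His-tagged kinase (domain or full length; E. coli or baculovirus) + [33P]ATP on plates coated with poly(Glu,Tyr) 4:1 or poly(Arg,Ser) 3:1; incubate, wash 0.5% H3PO4, add scintillant, count.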

[2] = biological target: T2, EGFR (Homo sapiens, UniProt P00533); experiment: Kinase inhibition assay (33P transfer), EGFR; settings: Table 2, kinase inhibition class; read-out: EGFR-1
T2 construct: Kinases are expressed as either kinase domains or full length constructs; made in house
Procedure, shortened: (§2)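 Steps: coat wells with poly(Glu,Tyr) 4:1 or poly(Arg,Ser) 3:1; add purified kinase, [33P]ATP and inhibitor; incubate; wash with 0.5% phosphoric acid; add liquid scintillant; count. IC50 corresponds to half-maximal reduction of bound 33P.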

[3] = biological target: T3, Itk (Homo sapiens, UniProt Q08881); experiment: Kinase inhibition assay (33P transfer), Itk; settings: read-out: Itk-1
T3 construct: Kinases are expressed as either kinase domains or full length constructs; made in house
T3 sequence (Q08881 1-620): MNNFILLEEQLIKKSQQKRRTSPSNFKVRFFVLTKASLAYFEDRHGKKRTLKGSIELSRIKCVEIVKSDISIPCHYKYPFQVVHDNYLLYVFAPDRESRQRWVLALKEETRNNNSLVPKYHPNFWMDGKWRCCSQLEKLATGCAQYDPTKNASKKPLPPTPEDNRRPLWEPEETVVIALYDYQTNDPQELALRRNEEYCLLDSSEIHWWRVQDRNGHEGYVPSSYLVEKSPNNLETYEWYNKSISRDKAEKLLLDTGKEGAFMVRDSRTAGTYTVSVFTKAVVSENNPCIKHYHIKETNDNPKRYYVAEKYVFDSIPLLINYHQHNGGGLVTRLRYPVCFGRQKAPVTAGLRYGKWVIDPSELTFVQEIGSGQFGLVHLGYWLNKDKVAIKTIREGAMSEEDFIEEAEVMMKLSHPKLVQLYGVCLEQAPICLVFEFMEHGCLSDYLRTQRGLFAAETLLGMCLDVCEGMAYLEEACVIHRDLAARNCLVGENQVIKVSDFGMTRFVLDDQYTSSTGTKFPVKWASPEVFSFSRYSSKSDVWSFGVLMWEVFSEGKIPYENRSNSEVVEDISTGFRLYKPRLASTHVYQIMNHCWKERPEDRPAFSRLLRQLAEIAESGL
Procedure, shortened: as §2

[4] = biological target: T4, ErbB2 (Homo sapiens, UniProt P04626); experiment: Kinase inhibition assay (33P transfer), ErbB2; settings: read-out: ErbB2-2
T4 construct: Kinases are expressed as either kinase domains or full length constructs; made in house
Procedure, shortened: as §2

[5] = biological target: T5, c-Met (Homo sapiens, UniProt P08581); experiment: Kinase inhibition assay (33P transfer), c-Met; settings: Table 2, kinase inhibition class; read-out: Met-1
T5 construct: Kinases are expressed as either kinase domains or full length constructs; made in house
T5 sequence (P08581 25-1390): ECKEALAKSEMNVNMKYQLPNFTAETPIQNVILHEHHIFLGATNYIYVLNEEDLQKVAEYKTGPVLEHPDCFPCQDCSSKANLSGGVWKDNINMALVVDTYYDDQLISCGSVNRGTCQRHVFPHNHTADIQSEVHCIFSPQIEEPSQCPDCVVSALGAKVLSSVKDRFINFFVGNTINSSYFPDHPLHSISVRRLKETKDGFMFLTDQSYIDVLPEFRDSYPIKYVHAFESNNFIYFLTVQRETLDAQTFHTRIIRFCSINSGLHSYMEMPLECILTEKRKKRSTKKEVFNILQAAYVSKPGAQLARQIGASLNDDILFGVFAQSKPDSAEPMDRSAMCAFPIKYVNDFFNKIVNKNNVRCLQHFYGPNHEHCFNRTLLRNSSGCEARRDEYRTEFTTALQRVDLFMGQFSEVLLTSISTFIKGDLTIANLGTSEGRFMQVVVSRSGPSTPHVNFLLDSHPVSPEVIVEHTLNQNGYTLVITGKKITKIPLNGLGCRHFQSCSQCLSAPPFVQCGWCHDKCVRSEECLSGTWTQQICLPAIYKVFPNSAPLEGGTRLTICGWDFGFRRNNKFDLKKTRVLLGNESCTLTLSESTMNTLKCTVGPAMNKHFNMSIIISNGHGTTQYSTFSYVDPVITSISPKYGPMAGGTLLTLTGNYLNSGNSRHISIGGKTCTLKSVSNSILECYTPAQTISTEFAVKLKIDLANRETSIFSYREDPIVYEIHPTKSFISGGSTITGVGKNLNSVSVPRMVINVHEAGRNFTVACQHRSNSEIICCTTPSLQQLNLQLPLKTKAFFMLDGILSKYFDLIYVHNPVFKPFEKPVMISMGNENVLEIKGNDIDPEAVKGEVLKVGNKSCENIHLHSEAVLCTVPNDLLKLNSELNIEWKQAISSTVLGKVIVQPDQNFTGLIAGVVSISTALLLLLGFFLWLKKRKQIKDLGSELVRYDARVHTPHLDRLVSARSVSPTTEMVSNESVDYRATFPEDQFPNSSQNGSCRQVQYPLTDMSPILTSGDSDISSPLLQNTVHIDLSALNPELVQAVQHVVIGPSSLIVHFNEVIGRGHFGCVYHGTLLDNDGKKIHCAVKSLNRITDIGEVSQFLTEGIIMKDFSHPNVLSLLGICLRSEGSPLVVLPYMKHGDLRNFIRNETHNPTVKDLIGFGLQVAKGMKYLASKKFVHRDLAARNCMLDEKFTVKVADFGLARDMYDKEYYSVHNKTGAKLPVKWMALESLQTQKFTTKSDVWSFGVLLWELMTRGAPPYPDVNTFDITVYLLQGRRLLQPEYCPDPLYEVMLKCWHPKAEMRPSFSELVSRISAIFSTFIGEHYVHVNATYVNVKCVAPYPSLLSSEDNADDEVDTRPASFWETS
Procedure, shortened: as §2

[6] = biological target: T6, Lck (Homo sapiens, UniProt P06239); experiment: Kinase inhibition assay (33P transfer), Lck; settings: read-out: Lck-1
T6 construct: Kinases are expressed as either kinase domains or full length constructs; made in house
T6 sequence (P06239 whole entry, species assumed, the tested form may be a part): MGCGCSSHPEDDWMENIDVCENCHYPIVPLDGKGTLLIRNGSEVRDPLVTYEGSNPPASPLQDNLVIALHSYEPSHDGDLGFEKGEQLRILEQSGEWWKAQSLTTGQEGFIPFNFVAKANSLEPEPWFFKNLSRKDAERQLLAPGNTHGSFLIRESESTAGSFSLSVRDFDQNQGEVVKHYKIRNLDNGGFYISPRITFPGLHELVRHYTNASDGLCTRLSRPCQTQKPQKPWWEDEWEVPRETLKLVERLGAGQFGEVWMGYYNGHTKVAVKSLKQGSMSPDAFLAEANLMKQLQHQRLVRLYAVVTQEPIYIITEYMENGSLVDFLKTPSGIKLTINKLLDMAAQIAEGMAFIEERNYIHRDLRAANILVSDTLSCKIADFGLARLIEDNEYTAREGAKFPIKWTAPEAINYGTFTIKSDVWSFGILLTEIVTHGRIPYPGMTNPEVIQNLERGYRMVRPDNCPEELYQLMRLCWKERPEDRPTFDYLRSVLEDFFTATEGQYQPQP
Procedure, shortened: as §1

[7] = biological target: T7, AKT (Homo sapiens, UniProt Q9Y243); experiment: Kinase inhibition assay (33P transfer), AKT; settings: Table 2, kinase inhibition class; read-out: AKT3-1
T7 construct: Kinases are expressed as either kinase domains or full length constructs; made in house
T7 sequence (Q9Y243 whole entry, the tested form may be a part): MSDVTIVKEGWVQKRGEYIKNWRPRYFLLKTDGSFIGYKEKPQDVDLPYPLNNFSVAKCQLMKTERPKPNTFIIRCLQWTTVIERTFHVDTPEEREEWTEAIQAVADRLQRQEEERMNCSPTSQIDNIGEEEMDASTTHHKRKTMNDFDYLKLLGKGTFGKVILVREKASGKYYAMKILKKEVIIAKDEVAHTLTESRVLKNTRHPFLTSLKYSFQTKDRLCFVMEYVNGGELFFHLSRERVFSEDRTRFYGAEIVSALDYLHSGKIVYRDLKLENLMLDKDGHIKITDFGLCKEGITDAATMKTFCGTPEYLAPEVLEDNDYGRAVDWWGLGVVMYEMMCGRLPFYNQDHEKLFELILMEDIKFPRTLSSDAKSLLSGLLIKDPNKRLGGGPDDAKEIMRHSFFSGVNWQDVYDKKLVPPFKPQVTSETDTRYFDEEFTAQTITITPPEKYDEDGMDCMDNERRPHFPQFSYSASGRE
Procedure, shortened: as §1

[8] = biological target: T8, IGFR-1 (Homo sapiens, UniProt P08069); experiment: Kinase inhibition assay, IGFR-1 (Table 2); settings: Table 2, kinase inhibition class
T8 construct: Kinases are expressed as either kinase domains or full length constructs; made in house
T8 sequence (P08069 31-1367): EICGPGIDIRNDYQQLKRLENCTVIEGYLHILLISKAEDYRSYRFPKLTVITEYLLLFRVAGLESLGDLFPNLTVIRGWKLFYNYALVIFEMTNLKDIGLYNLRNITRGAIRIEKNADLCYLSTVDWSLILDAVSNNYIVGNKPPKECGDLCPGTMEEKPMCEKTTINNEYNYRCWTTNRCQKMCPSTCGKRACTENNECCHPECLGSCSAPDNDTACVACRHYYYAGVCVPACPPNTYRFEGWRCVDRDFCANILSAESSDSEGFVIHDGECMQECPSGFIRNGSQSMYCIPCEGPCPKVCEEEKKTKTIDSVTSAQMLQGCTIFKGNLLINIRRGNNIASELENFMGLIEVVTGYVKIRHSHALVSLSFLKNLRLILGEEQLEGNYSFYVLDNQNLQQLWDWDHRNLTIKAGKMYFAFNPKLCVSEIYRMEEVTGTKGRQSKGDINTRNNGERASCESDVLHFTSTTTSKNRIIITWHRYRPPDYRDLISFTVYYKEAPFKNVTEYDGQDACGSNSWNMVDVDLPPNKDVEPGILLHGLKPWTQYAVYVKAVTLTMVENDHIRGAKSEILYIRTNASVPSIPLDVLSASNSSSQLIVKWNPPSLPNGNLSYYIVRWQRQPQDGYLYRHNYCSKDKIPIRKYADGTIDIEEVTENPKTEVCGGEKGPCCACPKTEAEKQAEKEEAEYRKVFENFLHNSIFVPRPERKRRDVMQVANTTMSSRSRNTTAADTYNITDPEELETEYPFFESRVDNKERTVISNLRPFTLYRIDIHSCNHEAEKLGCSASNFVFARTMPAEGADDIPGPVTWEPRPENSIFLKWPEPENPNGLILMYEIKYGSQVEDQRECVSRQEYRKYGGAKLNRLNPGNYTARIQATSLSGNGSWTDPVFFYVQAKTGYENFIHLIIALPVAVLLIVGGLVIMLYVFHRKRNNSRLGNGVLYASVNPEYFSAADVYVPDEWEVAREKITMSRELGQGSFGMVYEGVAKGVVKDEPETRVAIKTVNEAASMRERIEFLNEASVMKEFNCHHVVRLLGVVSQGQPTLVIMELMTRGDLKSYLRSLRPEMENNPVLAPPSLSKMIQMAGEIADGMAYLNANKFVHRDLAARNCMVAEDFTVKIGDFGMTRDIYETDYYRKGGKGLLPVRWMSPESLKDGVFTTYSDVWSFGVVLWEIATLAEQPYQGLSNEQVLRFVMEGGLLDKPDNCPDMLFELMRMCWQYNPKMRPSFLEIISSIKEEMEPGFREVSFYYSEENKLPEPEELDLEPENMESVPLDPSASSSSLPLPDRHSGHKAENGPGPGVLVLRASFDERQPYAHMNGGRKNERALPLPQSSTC

[9] = biological target: T9, Kdr (Homo sapiens, UniProt P35968); experiment: Kinase inhibition assay (33P transfer), Kdr; settings: read-out: KDR-1
T9 construct: Kinases are expressed as either kinase domains or full length constructs; made in house
Procedure, shortened: as §1

[10] = biological target: T10, PDGFRB (Homo sapiens, UniProt P09619); experiment: Kinase inhibition assay (33P transfer), PDGFRB; settings: read-out: PDGFRB-1
T10 construct: Kinases are expressed as either kinase domains or full length constructs; made in house
T10 sequence (P09619 33-1106, species assumed): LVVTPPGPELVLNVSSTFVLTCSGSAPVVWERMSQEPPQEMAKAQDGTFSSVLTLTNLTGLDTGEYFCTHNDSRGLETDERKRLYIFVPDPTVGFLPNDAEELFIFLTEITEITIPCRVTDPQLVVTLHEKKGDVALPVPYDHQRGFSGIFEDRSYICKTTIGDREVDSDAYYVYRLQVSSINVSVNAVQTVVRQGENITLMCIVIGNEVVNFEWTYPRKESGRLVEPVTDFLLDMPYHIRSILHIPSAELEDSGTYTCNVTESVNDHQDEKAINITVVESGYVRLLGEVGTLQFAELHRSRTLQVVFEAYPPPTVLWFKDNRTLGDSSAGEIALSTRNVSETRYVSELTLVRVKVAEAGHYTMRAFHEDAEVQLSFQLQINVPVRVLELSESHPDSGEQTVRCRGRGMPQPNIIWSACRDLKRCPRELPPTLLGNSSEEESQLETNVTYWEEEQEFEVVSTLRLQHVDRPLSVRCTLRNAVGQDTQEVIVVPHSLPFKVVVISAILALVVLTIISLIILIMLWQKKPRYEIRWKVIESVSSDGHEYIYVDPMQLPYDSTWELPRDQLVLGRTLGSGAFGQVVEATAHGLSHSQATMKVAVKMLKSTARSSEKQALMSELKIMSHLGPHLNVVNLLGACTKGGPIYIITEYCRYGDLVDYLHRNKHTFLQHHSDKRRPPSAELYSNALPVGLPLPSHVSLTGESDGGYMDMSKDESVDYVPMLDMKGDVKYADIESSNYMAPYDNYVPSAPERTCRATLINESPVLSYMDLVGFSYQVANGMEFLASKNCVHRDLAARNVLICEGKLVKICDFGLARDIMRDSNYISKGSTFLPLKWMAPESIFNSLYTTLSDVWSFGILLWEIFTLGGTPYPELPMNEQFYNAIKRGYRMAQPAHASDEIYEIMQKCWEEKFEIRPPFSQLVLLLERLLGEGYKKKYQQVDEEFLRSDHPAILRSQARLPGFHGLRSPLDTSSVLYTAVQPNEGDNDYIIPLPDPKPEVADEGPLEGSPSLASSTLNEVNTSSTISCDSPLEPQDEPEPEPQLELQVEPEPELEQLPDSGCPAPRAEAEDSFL

IC50 [1] [µM]	IC50 [2] [µM]	IC50 [3] [µM]	IC50 [4] [µM]	IC50 [5] [µM]	IC50 [6] [µM]	IC50 [7] [µM]	IC50 [8] [µM]	IC50 [9] [µM]	IC50 [10] [µM]	Compound
> 11.2	< 0.995	> 11.2	< 0.995	> 11.2	< 0.995	> 11.2	0.995 to 5.97	0.995 to 5.97	< 0.995	COc1cc(Nc2ncnc(Nc3cc(Cl)ccc3C)n2)cc(OC)c1OC [Compound 625]
> 14.3	< 1.27	> 14.3	> 14.3	> 14.3	> 14.3	> 14.3	> 14.3	> 14.3	> 14.3	CN(c1cccc(Cl)c1)c1ncnc(Nc2ncccn2)n1 [Compound 757]
> 12.2	> 12.2	> 12.2	6.53 to 9.53	> 12.2	1.09 to 6.53	> 12.2	1.09 to 6.53	9.53 to 12.2	6.53 to 9.53	CCOc1cccc(Nc2ncnc(Nc3ccc(OC)c(OC)c3)n2)c1 [Compound 783]
> 9.23	4.92 to 7.18	> 9.23	> 9.23	> 9.23	0.821 to 4.92	> 9.23	> 9.23	< 0.821	< 0.821	COc1cc(Nc2ncnc(-n3c(Nc4cccc(F)c4)nc4ccccc43)n2)cc(OC)c1OC [Compound 1053]
> 12.9	> 12.9	10 to 12.9	> 12.9	> 12.9	> 12.9	> 12.9	> 12.9	> 12.9	10 to 12.9	Cc1ccc2c(c1)CCCN2c1ncnc(NCCCn2ccnc2)n1 [Compound 772]
> 10.4	> 10.4	> 10.4	> 10.4	> 10.4	< 0.923	> 10.4	0.923 to 5.54	< 0.923	< 0.923	C=CCNc1nc2ccccc2n1-c1ncnc(Nc2cc(OC)c(OC)c(OC)c2)n1 [Compound 574]
> 9.67	0.859 to 5.16	> 9.67	7.52 to 9.67	> 9.67	0.859 to 5.16	> 9.67	> 9.67	< 0.859	< 0.859	COC(=O)Cc1cccc(Nc2ncnc(-n3c(NCc4ccccc4)nc4ccccc43)n2)c1 [Compound 545]
1.12 to 6.75	< 1.12	1.12 to 6.75	1.12 to 6.75	1.12 to 6.75	1.12 to 6.75	> 12.6	1.12 to 6.75	1.12 to 6.75	< 1.12	Fc1ccc(Nc2ncnc(Nc3ccc4[nH]ncc4c3)n2)cc1Cl [Compound 717]
> 14.6	1.3 to 7.81	< 1.3	1.3 to 7.81	1.3 to 7.81	1.3 to 7.81	> 14.6	1.3 to 7.81	1.3 to 7.81	1.3 to 7.81	Cc1ccc2c(c1)CCCN2c1ncnc(Nc2cc[nH]n2)n1 [Compound 766]
5.8 to 8.46	> 10.9	> 10.9	> 10.9	8.46 to 10.9	> 10.9	> 10.9	> 10.9	8.46 to 10.9	> 10.9	c1ccc(Cn2ncc3cc(Nc4ncnc(NCC5CCCCC5)n4)ccc32)cc1 [Compound 727]
> 11.2	< 0.999	8.74 to 11.2	< 0.999	8.74 to 11.2	> 11.2	> 11.2	0.999 to 6	0.999 to 6	0.999 to 6	O=C(O)Cc1cccc(Nc2ncnc(Nc3cccc(Br)c3)n2)c1 [Compound 541]
> 10.5	< 0.937	> 10.5	5.62 to 8.2	5.62 to 8.2	0.937 to 5.62	> 10.5	> 10.5	> 10.5	> 10.5	CN(c1cccc(Cl)c1)c1ncnc(Nc2ccc(NC(=O)OC(C)(C)C)cc2)n1 [Compound 750]
> 12.5	1.11 to 6.66	> 12.5	> 12.5	> 12.5	> 12.5	> 12.5	> 12.5	> 12.5	> 12.5	CN(c1cccc(Cl)c1)c1ncnc(N(C)c2cccc(Cl)c2)n1 [Compound 702]
> 13.8	> 13.8	> 13.8	> 13.8	> 13.8	> 13.8	> 13.8	> 13.8	> 13.8	> 13.8	Cc1ccc2c(c1)CCCN2c1ncnc(NCC2CCCO2)n1 (centres unmarked) [Compound 759]
> 12	9.37 to 12	9.37 to 12	> 12	1.07 to 6.43	1.07 to 6.43	> 12	> 12	1.07 to 6.43	1.07 to 6.43	CCCN(CC1CC1)c1ncnc(Nc2cc(OC)c(OC)c(OC)c2)n1 [Compound 626]
> 10.5	> 10.5	5.58 to 8.13	> 10.5	5.58 to 8.13	> 10.5	> 10.5	0.929 to 5.58	> 10.5	> 10.5	COC(=O)c1ccc(-c2cc(Nc3ncnc(Nc4cccc(C(N)=O)c4)n3)[nH]n2)cc1 [Compound 990]
> 12.8	< 1.14	> 12.8	< 1.14	1.14 to 6.84	1.14 to 6.84	> 12.8	1.14 to 6.84	1.14 to 6.84	1.14 to 6.84	CN(c1cccc(Cl)c1)c1ncnc(Nc2ccc3[nH]ccc3c2)n1 [Compound 714]
4.67 to 6.82	> 8.76	> 8.76	6.82 to 8.76	4.67 to 6.82	4.67 to 6.82	> 8.76	> 8.76	< 0.779	0.779 to 4.67	COc1ccc(Nc2nc3ccccc3n2-c2ncnc(Nc3cc(OC)c(OC)c(OC)c3)n2)c(C)c1 [Compound 558]
> 12.4	< 1.1	1.1 to 6.6	> 12.4	> 12.4	> 12.4	> 12.4	< 1.1	> 12.4	9.62 to 12.4	Clc1cccc(Nc2ncnc(Nc3cc(-c4ccccc4)n[nH]3)n2)c1 [Compound 1009]
> 10.2	< 0.91	> 10.2	0.91 to 5.46	> 10.2	0.91 to 5.46	> 10.2	0.91 to 5.46	7.97 to 10.2	0.91 to 5.46	COc1cc(Nc2ncnc(Nc3cc(F)cc(C(F)(F)F)c3)n2)cc(OC)c1OC [Compound 632]

Source: patent US7074789B2, “Kinase inhibitors” (Amgen Inc., priority 1999, dated 2006)
